Data on four molecules can be found in US20220378707A1, “1-(((2S,3S,4S)-3-ETHYL-4-FLUORO-5-OXOPYRROLIDIN-2-YL)METHOXY)-7-METHOXYISOQUINOLINE-6-CARBOXAMIDE COMBINATIONS AND ORAL DOSAGE FORMS” (Pfizer Inc., priority 2019, published 2022).

Data set [1] in a line: Particle size of PF-06650833 by milling process. It is filed as physicochemical. The note with it: PF-06650833 particles.
A short description of data set [2]: Combination oral pharmacokinetic study of PF-06651600 and PF-06650833 in rat. The note with it: male Wistar Han rat, PF-06651600 10 and 50 mg/kg, PF-06650833 30 and 100 mg/kg. The procedure: Doses of 1-((2S,5R)-5-((7H-pyrrolo[2,3-d]pyrimidin-4-yl)amino)-2-methylpiperidin-1-yl)prop-2-en-1-one were 10 and 50 mg/kg and 1-(((2S,3S,4S)-3-ethyl-4-fluoro-5-oxopyrrolidin-2-yl)methoxy)-7-methoxyisoquinoline-6-carboxamide were 30 and 100 mg/kg in male Wistar Han.

Data set [3] concerns human primary cell-based systems. The data set is described as follows: BioMAP panel of 12 systems. The settings on record: BioMAP profile, PF-06651600 200-5400 nM. From the text:
(§1) The BioMAP systems consist of human primary cell-based systems designed to model different aspects of the human body in an in vitro format. The 12 systems tested characterized the test compounds across a broad set of systems modeling various human disease states. BioMAP systems were constructed with one or more primary cell types from healthy human donors, with stimuli (such as cytokines or growth factors) added to capture relevant signaling networks that naturally occur in human tissue or pathological conditions. Vascular biology was modeled in both a Th1 (3C system) and a Th2 (4H system) inflammatory environment, as well as in a Th1 inflammatory state specific to arterial smooth muscle cells (CASM3C system). Additional systems recapitulated aspects of the systemic immune response that included monocyte-driven Th1 inflammation (LPS system) or T cell stimulation (SAg system), chronic Th1 inflammation driven by macrophage activation (IMphg system) and the T cell-dependent activation of B cells that occurs in germinal centers (BT system). The BE3C system (Th1) and the BF4T system (Th2) represented airway inflammation of the lung, while the MyoF system modeled myofibroblast-lung tissue remodeling. Lastly, skin biology was addressed in the KF3CT system modeled Th1 cutaneous inflammation and the HDF3CGF system modeled wound healing.
(§2) All cells were from a pool of multiple donors (n=2-6), commercially purchased and handled according to the recommendations of the manufacturers. Human blood derived CD14+ monocytes were differentiated into macrophages in vitro before being added to the IMphg system. Abbreviations were used as follows: human umbilical vein endothelial cells (HUVEC), peripheral blood mononuclear cells (PBMC), human neonatal dermal fibroblasts (HDFn), B cell receptor (BCR), T cell receptor (TCR) and toll-like receptor (TLR). Cell types and stimuli used in each system were as follows:
(§3) 3C system [HUVEC+(IL-1β, TNFα and IFNγ)]; 4H system [HUVEC+(IL-4 and histamine)]; LPS system [PBMC and HUVEC+LPS (TLR4 ligand)]; SAg system [PBMC and HUVEC+T cell receptor (TCR) ligands]; BT system [CD19+B cells and PBMC+(α-IgM and TCR ligands)]; BF4T system [bronchial epithelial cells and HDFn+(TNFα and IL-4)]; BE3C system [bronchial epithelial cells+(IL-1p, TNFα and IFNγ)]; CASM3C system [coronary artery smooth muscle cells+(IL-1p, TNFα and IFNγ)]; HDF3CGF system [HDFn+(IL-1β, TNFα, IFNγ, EGF, bFGF and PDGF-BB)]; KF3CT system [keratinocytes and HDFn+(IL-1β, TNFα and IFNγ)]; MyoF system [differentiated lung myofibroblasts+(TNFα and TGFβ)]; and IMphg system [HUVEC and M1 macrophages+Zymosan (TLR2 ligand)].
(§4) Systems were derived from either single cell types or co-culture systems. Adherent cell types were cultured in 96 or 384-well plates until confluence, followed by the addition of PBMC (SAg and LPS systems). The BT system consisted of CD19+B cells co-cultured with PBMC and stimulated with a BCR activator and low levels of TCR stimulation. Test agents were prepared in DMSO (final concentration <0.1%) and were added 1 hour before stimulation, and remained in culture for 24 hours or as otherwise indicated (48-hrs, MyoF system; 72-hrs, BT system (soluble readouts); 168-hrs, BT system (secreted IgG)). Each plate contained drug controls (e.g., legacy control test agent colchicine at 1.1 μM), negative controls (e.g., non-stimulated conditions) and vehicle controls (e.g., 0.1% DMSO) appropriate for each system. Direct ELISA was used to measure biomarker levels of cell-associated and cell membrane targets. Soluble factors from supernatants were quantified using either HTRF® detection, bead-based multiplex immunoassay or capture ELISA. Overt adverse effects of test agents on cell proliferation and viability (cytotoxicity) were detected by sulforhodamine B (SRB) staining, for adherent cells, and alamarBlue® reduction for cells in suspension. […]

In data set [4] the test system is PBMC and HUVEC+LPS (TLR4 ligand). Description: BioMAP LPS system. It is filed as cell-based, human. The note with it: monocyte-driven Th1 inflammation, concentrations of FIGS. 12-14.
Description: as §1, §2, §3, §4

The subject of data set [5] is CD19+B cells and PBMC+(α-IgM and TCR ligands). The data set is described as follows: BioMAP BT system. Format: cell-based, human. The settings on record: for Inhibition of biomarker readouts in the BT system: T cell dependent B cell activation, concentrations of FIGS. 12-14; for B cell proliferation in the BT system: concentrations of FIGS. 13-14.
Description: as §1, §2, §3, §4

Data set [6] has as its system PBMC and HUVEC+T cell receptor (TCR) ligands. Description: BioMAP SAg system. Format: cell-based, human. The settings on record: for Inhibition of biomarker readouts in the SAg system: T cell-driven Th1 vascular inflammation, concentrations of FIGS. 12-16.
Description: as §1, §2, §3
Systems were derived from either single cell types or co-culture systems. Adherent cell types were cultured in 96 or 384-well plates until confluence, followed by the addition of PBMC (SAg and LPS systems). The BT system consisted of CD19+B cells co-cultured with PBMC and stimulated with a BCR activator and low levels of TCR stimulation. Test agents were prepared in DMSO (final concentration <0.1%) and were added 1 hour before stimulation, and remained in culture for 24 hours or as otherwise indicated (48-hrs, MyoF system; 72-hrs, BT system (soluble readouts); 168-hrs, BT system (secreted IgG)). Each plate contained drug controls (e.g., legacy control test agent colchicine at 1.1 μM), negative controls (e.g., non-stimulated conditions) and vehicle controls (e.g., 0.1% DMSO) appropriate for each system. Direct ELISA was used to measure biomarker levels of cell-associated and cell membrane targets. Soluble factors from supernatants were quantified using either HTRF® detection, bead-based multiplex immunoassay or capture ELISA. Overt adverse effects of test agents on cell proliferation and viability (cytotoxicity) were detected by sulforhodamine B (SRB) staining, for adherent cells, and alamarBlue® reduction for cells in suspension.

For data set [7], the system named is HDFn+(IL-1β, TNFα, IFNγ, EGF, bFGF and PDGF-BB). The data set is described as follows: BioMAP HDF3CGF system. It is filed as cell-based, human. The note with it: wound healing, Th1-type inflammation; concentrations of FIGS. 12-16.
Description: as §1, §2, §3
Systems were derived from either single cell types or co-culture systems. Adherent cell types were cultured in 96 or 384-well plates until confluence, followed by the addition of PBMC (SAg and LPS systems). […] Test agents were prepared in DMSO (final concentration <0.1%) and were added 1 hour before stimulation, and remained in culture for 24 hours or as otherwise indicated (48-hrs, MyoF system; 72-hrs, BT system (soluble readouts); 168-hrs, BT system (secreted IgG)). […] Soluble factors from supernatants were quantified using either HTRF® detection, bead-based multiplex immunoassay or capture ELISA. Overt adverse effects of test agents on cell proliferation and viability (cytotoxicity) were detected by sulforhodamine B (SRB) staining, for adherent cells, and alamarBlue® reduction for cells in suspension.

Setting [8] is: listed as 1-((2S,5R)-5-((7H-Pyrrolo[2,3-d]pyrimidin-4-yl)amino)-2-methylpiperidin-1-yl)pro.
The mark [9] stands for this setting: listed as 1-((2S,5R)-5-((7H-pyrrolo[2,3-d]pyrimidin-4-yl)amino)-2-methylpiperidin-1-yl)pro.

As to `CC[C@@H]1[C@H](F)C(=O)N[C@@H]1COc1nccc2cc(C(N)=O)c(OC)cc12` [Fitzmilled, 1-(((2S,3S,4S)-3-Ethyl-4-fluoro-5-oxopyrrolidin-2-yl)methoxy)-7-methoxyisoquinoline-6-carboxamide], in data set [1], the “Particle size D[4, 3]” value turned out to be 17.0 μm; the “Particle size D[v, 0.1]” value is recorded as 2.0 μm; the “Particle size D[v, 0.5]” value came out at 10.0 μm; the “Particle size D[v, 0.9]” value was determined as 35.0 μm.
Turning to `C=CC(=O)N1C[C@H](Nc2ncnc3[nH]ccc23)CC[C@@H]1C` [PF-06651600, 1-((2S,5R)-5-((7H-Pyrrolo[2,3-d]pyrimidin-4-yl)amino)-2-methylpiperidin-1-yl)prop-2-en-1-one], the “Effects of PF-06650833 on the pharmacokinetics of PF-06651600” value in data set [2] was “no significant effects”. Besides, the “Immunomodulatory activities: Decreased Activity” value in data set [3] (PF-06650833 19-500 nM, tofacitinib 37-1000 nM) is on record as “*sIgG, B cell proliferation, T cell proliferation”. For the same molecule, in data set [3], the “Tissue Remodeling Activities: Decreased Activity” value is “PAI-I”. For the same molecule, the “Inhibition of biomarker readouts in the LPS system” value in data set [4] (setting [8]) is listed as “TNFα”; in data set [4] (setting [9]), “sTNFα levels were reduced”. In addition, the “Inhibition of biomarker readouts in the BT system” value in data set [5] (setting [8]) is “sIgG, sIL-17A, sIL-17F, sIL-6, and TNFα”; in data set [5] (setting [9]) it was “sIgG, sIL-17A, sIL-17F, sIL-6, and sTNFα”. Besides, the “B cell proliferation in the BT system” value in data set [5] (setting [8]) is “inhibited”; in data set [5] (setting [9]), “B cell anti-proliferative activity”. Further, the “Inhibition of biomarker readouts in the SAg system” value in data set [6] (setting [8]) is “IL-8”; in data set [6] (setting [9]) it was “sIL-s8 levels were reduced”. Moreover, the “Proliferation of T cells in the SAg system” value in data set [6] (concentrations of FIGS. 13-14) is listed as “inhibited”. In data set [7], the “Inhibition of biomarker readouts in the HDF3CGF system” value is recorded as “PA-I”.
Take `CC[C@@H]1[C@H](F)C(=O)N[C@@H]1COc1nccc2cc(C(N)=O)c(OC)cc12` [Unmilled, 1-(((2S,3S,4S)-3-Ethyl-4-fluoro-5-oxopyrrolidin-2-yl)methoxy)-7-methoxyisoquinoline-6-carboxamide]: in data set [1], the “Particle size D[4, 3]” value turned out to be 28.4 μm; the “Particle size D[v, 0.1]” value was found to be 4.6 μm; the “Particle size D[v, 0.5]” value is listed as 22.3 μm; the “Particle size D[v, 0.9]” value came to 61.6 μm.
Taken in the same sequence, the figures for `CC[C@@H]1[C@H](F)C(=O)N[C@@H]1COc1nccc2cc(C(N)=O)c(OC)cc12` [Jetmilled, 1-(((2S,3S,4S)-3-Ethyl-4-fluoro-5-oxopyrrolidin-2-yl)methoxy)-7-methoxyisoquinoline-6-carboxamide] were 4.6 μm, 0.7 μm, 3.9 μm and 9.6 μm.
